Assay [1] concerns the target T1, WP_074995790 (Streptomyces misionensis, UniProt A0A1H5HEE9).
T1 construct: gene SAMN04490357_7452; synthetic gene without secretion signal, pET20b, C-terminal His-tag, E. coli Rosetta DE3, Ni-IDA purified
T1 sequence (A0A1H5HEE9 63-752): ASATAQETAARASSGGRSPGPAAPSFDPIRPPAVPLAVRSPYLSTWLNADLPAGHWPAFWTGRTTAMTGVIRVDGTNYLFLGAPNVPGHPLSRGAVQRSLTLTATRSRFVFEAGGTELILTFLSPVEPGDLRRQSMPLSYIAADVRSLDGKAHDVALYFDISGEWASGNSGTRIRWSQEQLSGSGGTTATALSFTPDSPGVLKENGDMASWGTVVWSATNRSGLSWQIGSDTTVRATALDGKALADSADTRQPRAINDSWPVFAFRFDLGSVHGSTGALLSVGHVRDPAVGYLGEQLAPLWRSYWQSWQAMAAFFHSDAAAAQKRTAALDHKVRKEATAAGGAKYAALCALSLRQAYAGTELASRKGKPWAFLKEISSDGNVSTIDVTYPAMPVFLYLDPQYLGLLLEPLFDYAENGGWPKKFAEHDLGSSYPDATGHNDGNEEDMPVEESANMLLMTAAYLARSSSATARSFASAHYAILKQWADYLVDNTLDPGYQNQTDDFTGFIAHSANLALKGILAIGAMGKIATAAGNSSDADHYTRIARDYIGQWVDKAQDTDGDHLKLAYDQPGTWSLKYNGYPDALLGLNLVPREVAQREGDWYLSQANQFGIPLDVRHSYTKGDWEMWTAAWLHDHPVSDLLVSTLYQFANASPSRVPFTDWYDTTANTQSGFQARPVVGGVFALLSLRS
Description: pNP release at […] nm. It counts as biochemical. The following applies: 200 µM substrate, phosphate citrate buffer; only specific activity reported.

Assay [2] concerns T2, Phchr2|2915237.
T2 construct: gene phchr2_2915237; synthetic gene from JGI model, secreted by Aspergillus oryzae, C-terminal 6xHis tag kept, Ni-purified
Description: discontinuous pNP release at […] nm. Format: biochemical, Phanerodontia chrysosporium. The following applies: phosphate citrate buffer; pH and temperature of the kinetics not restated (optimum pH 5, 60 °C).

Assay [3] deals with T3, Phchr2|126075.
T3 construct: gene phchr2_126075; filtered culture supernatant assayed
Description: continuous pNP release at […] nm, filtered K. lactis culture supernatant. Format: biochemical, Phanerodontia chrysosporium. As to conditions: 50 mM TRIS pH 8, 20 mM KCl, 40 °C.

Consider `O=[N+]([O-])c1ccc(O[C@@H]2O[C@H](CO)[C@H](O)[C@H](O)[C@H]2O)cc1` [pNP-Gal], for which the “pNP release at 410 nm” value in assay [1] is “we were able to detect a weak β-galactosidase activity”.
A word on the Km: it is the concentration of substrate that gives half-maximal velocity. Turning to `O=[N+]([O-])c1ccc(O[C@@H]2O[C@H](CO)[C@@H](O)[C@H](O)[C@H]2O)cc1` [pNP-Glc], the Km in assay [2] is 1820 µM.
Consider `O=[N+]([O-])c1ccc(O[C@@H]2OC[C@@H](O)[C@H](O)[C@H]2O)cc1` [pNP-Xyl], for which the Km in assay [2] is 6980 µM.
In the case of `CC(=O)Oc1ccc([N+](=O)[O-])cc1` [pNP-acetate], in assay [3], the Michaelis constant (Km) came out at 670 µM.

For the origin of these results see paper PMC9668830, “Identification of fungal lignocellulose-degrading biocatalysts secreted by Phanerochaete chrysosporium via activity-based protein profiling” (Communications Biology, 2022).
